Consider 31 compounds from US10414740B2, “Glutaminase inhibitors and method of use” (Agios Pharmaceuticals, Inc., priority 2012, dated 2019).

pIC50: −log10 of the molar value.

This assay has as its target T1, glutaminase (GAC) (Homo sapiens, UniProt O94925).
T1 sequence (O94925 55-598 isoform O94925-3 limits assumed): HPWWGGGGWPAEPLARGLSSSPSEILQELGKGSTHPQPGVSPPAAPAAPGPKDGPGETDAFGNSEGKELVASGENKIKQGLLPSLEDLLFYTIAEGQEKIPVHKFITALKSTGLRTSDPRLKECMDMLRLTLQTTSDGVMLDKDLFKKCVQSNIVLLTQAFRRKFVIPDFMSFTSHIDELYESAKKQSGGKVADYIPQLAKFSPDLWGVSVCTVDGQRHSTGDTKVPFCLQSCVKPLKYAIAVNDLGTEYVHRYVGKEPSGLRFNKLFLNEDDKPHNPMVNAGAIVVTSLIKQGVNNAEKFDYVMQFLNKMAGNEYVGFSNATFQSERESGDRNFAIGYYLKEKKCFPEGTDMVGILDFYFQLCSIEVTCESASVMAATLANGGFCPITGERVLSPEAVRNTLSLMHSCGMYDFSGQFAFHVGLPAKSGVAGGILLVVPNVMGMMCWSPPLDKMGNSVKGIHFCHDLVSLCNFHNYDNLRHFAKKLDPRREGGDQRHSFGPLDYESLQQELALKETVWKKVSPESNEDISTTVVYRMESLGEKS
The assay is described as follows: glutaminase coupled endpoint assay (Example A). The format is biochemical. To be noted: inhibition of glutaminase; IC50 tested in an assay of Example A or Example B. As to the method: In this example, the enzymatic activity of glutaminase is measured through a coupled endpoint assay. […] The glutamate produced is converted to 2-OG by a kinetic excess of glutamate dehydrogenase. […] However, a kinetic excess of the third coupling enzyme, diaphorase, recycles NAD from NADH to keep the NAD concentration constant during the timecourse of the assay. Diaphorase, also supplied in kinetic excess, oxidizes NADH produced by GDH back to NAD with the concomitant reduction of rezasurin to the highly fluorescent resorufin. […] A reduction in the signal indicates inhibition of some component of the coupled enzyme system. Prospective hits are counterscreened against GDH/diaphorase alone to remove hits to the coupling enzyme system in a second assay.
2. […] Add 1 μl a compound in 100% DMSO 2. Add 40 μl of Enzyme Mix and incubate for 60 minute at room temperature 3. Add 10 μl of Substrate Mix to start reaction 4.
Compound `O=C(Nc1nnc(CCSCCc2nnc(NC(=O)Oc3ccccc3)s2)s1)Oc1ccccc1` [Compound 1, Diphenyl (5,5′-(thiobis(ethane-2,1-diyl))bis(1,3,4-thiadiazole-5,2-diyl))dicarbamate] showed a pIC50 of 5.00 to 6.00.

The compound `O=C(Cc1ccccc1)Nc1nnc(CCS(=O)(=O)CCc2nnc(NC(=O)Cc3ccccc3)s2)s1` [Compound 4, N,N′-(5,5′-(sulfonylbis(ethane-2,1-diyl))bis(1,3,4-thiadiazole-5,2-diyl))bis(2-phenylacetamide)] showed a negative logarithm of the IC50 (pIC50) greater than 7.00.

In turn, `O=C(Cc1ccccc1)Nc1nnc(CCCSCc2nnc(NC(=O)Cc3ccccc3)s2)s1` [Compound 6, 2-Phenyl-N-(5-(3-(((5-(2-phenylacetamido)-1,3,4-thiadiazol-2-yl)methyl)thio)propyl)-1,3,4-thiadiazol-2-yl)acetamide] showed a pIC50 of 6.00 to 6.30.

In turn, `O=C(Cc1ccccc1)Nc1nnc(CC[S+]([O-])CCc2nnc(NC(=O)Cc3ccccc3)s2)s1` [Compound 7, N,N′-(5,5′-(sulfinylbis(ethane-2,1-diyl))bis(1,3,4-thiadiazole-5,2-diyl))bis(2-phenyl Acetamide)] gave a pIC50 of 6.30 to 7.00.

Take `O=C(Nc1nnc(CCSCCc2nnc(NC(=O)OC3CCCCC3)s2)s1)OC1CCCCC1` [Compound 8, Dicyclohexyl (5,5′-(thiobis(ethane-2,1-diyl))bis(1,3,4-thiadiazole-5,2-diyl))dicarbamate]: the pIC50 is 6.00 to 6.30.

Compound `c1ccc(CCNc2nnc(CCSCCc3nnc(NCCc4ccccc4)s3)s2)cc1` [Compound 9, 5,5′-(thiobis(ethane-2,1-diyl))bis(N-phenethyl-1,3,4-thiadiazol-2-amine)] gave a pIC50 of 5.00 to 6.00.

The compound `O=C(Cc1cccnc1)Nc1nnc(CCCCCc2nnc(NC(=O)Cc3cccnc3)s2)s1` [Compound 10, N,N′-(5,5′-(pentane-1,5-diyl)bis(1,3,4-thiadiazole-5,2-diyl))bis(2-(pyridin-3-yl)acetamide)] showed a pIC50 of 6.30 to 7.00.

Turning to `O=C(Cc1ccccn1)Nc1nnc(CCCCCc2nnc(NC(=O)Cc3ccccn3)s2)s1` [Compound 11, N,N′-(5,5′-(pentane-1,5-diyl)bis(1,3,4-thiadiazole-5,2-diyl))bis(2-(pyridin-2-yl)acetamide)], the pIC50 was 6.30 to 7.00.

As for `O=C(Cc1ccccc1)Nc1nnc(CCCCCCc2nnc(NC(=O)Cc3ccccc3)s2)s1` [Compound 12, N,N′-(5,5′-(hexane-1,6-diyl)bis(1,3,4-thiadiazole-5,2-diyl))bis(2-phenylacetamide)], the pIC50 is 5.00 to 6.00.

Take `O=C(Cc1ccccn1)Nc1nnc(CCS(=O)(=O)CCc2nnc(NC(=O)Cc3ccccn3)s2)s1` [Compound 13, N,N′-(5,5′-(sulfonylbis(ethane-2,1-diyl))bis(1,3,4-thiadiazole-5,2-diyl))bis(2-(pyridin-2-yl)acetamide)]: the pIC50 was greater than 7.00.

Regarding `O=C(Cc1cccnc1)Nc1nnc(CCS(=O)(=O)CCc2nnc(NC(=O)Cc3cccnc3)s2)s1` [Compound 14, N,N′-(5,5′-(sulfonylbis(ethane-2,1-diyl))bis(1,3,4-thiadiazole-5,2-diyl))bis(2-(pyridin-3-yl)acetamide)], the pIC50 is greater than 7.00.

With `CC(C)(C)OC(=O)Nc1nnc(CCS(=O)(=O)CCc2nnc(NC(=O)OC(C)(C)C)s2)s1` [Compound 15, Di-tert-butyl (5,5′-(sulfonylbis(ethane-2,1-diyl))bis(1,3,4-thiadiazole-5,2-diyl))dicarbamate], the pIC50 is 6.30 to 7.00.

`O=C(Cc1ccccn1)Nc1nnc(CCCCCCc2nnc(NC(=O)Cc3ccccn3)s2)s1` [Compound 16, N,N′-(5,5′-(hexane-1,6-diyl)bis(1,3,4-thiadiazole-5,2-diyl))bis(2-(pyridin-2-yl)acetamide)] showed a pIC50 of 5.00 to 6.00.

`O=C(Cc1ccccn1)Nc1nnc(CC[S+]([O-])CCc2nnc(NC(=O)Cc3ccccn3)s2)s1` [Compound 17, N,N′-(5,5′-(sulfinylbis(ethane-2,1-diyl))bis(1,3,4-thiadiazole-5,2-diyl))bis(2-(pyridin-2-yl)acetamide)] gave a pIC50 of 6.30 to 7.00.

The compound `CN(C(=O)Nc1nnc(CCSCCc2nnc(NC(=O)N(C)c3ccccc3)s2)s1)c1ccccc1` [Compound 18, 1,1′-(5,5′-(thiobis(ethane-2,1-diyl))bis(1,3,4-thiadiazole-5,2-diyl))bis(3-methyl-3-phenylurea)] had a pIC50 of 5.00 to 6.00.

Compound `O=C(Nc1nnc(CCS(=O)(=O)CCc2nnc(NC(=O)OCc3ccccc3)s2)s1)OCc1ccccc1` [Compound 19, Dibenzyl (5,5′-(sulfonylbis(ethane-2,1-diyl))bis(1,3,4-thiadiazole-5,2-diyl))dicarbamate] had a pIC50 greater than 7.00.

Compound `O=C(CCc1ccccc1)Nc1nnc(CCCCCc2nnc(NC(=O)CCc3ccccc3)s2)s1` [Compound 20, N,N′-(5,5′-(pentane-1,5-diyl)bis(1,3,4-thiadiazole-5,2-diyl))bis(3-phenylpropanamide)] had a pIC50 of 5.00 to 6.00.

In turn, `O=C(CCc1ccccc1)Nc1nnc(CCS(=O)(=O)CCc2nnc(NC(=O)CCc3ccccc3)s2)s1` [Compound 21, N,N′-(5,5′-(2,2′-sulfonylbis(ethane-2,1-diyl))bis(1,3,4-thiadiazole-5,2-diyl))bis(3-phenylpropanamide)] had a pIC50 greater than 7.00.

`CC(C)COC(=O)Nc1nnc(CCS(=O)(=O)CCc2nnc(NC(=O)OCC(C)C)s2)s1` [Compound 22, Diisobutyl (5,5′-(sulfonylbis(ethane-2,1-diyl))bis(1,3,4-thiadiazole-5,2-diyl))dicarbamate]: the pIC50 is 6.30 to 7.00.

`CC(C)OC(=O)Nc1nnc(CCS(=O)(=O)CCc2nnc(NC(=O)OC(C)C)s2)s1` [Compound 23, Diisopropyl (5,5′-(sulfonylbis(ethane-2,1-diyl))bis(1,3,4-thiadiazole-5,2-diyl))dicarbamate] had a pIC50 of 6.00 to 6.30.

Compound `O=C(Cc1ccccc1)Nc1nnc(CC[S+]([O-])CCC(=O)Nc2nnc(Cc3ccccc3)s2)s1` (stereo not shown) [Compound 24] gave a pIC50 of 5.00 to 6.00.

The compound `O=C(Cc1ccccn1)Nc1nnc(CC/C=C/CCc2nnc(NC(=O)Cc3ccccn3)s2)s1` [Compound 25] showed a pIC50 of 5.00 to 6.00.

`O=C(Cc1cccnc1)Nc1nnc(CCCc2nnc(NC(=O)Cc3cccnc3)s2)s1` [Compound 26, N,N′-(5,5′-(propane-1,3-diyl)bis(1,3,4-thiadiazole-5,2-diyl))bis(2-(pyridin-3-yl)acetamide)]: the pIC50 is 6.30 to 7.00.

`O=C(Cc1cccnc1)Nc1nnc(C/C=C/Cc2nnc(NC(=O)Cc3cccnc3)s2)s1` [Compound 27, (E)-N,N′-(5,5′-(but-2-ene-1,4-diyl)bis(1,3,4-thiadiazole-5,2-diyl))bis(2-(pyridin-3-yl)acetamide)] had a pIC50 greater than 7.00.

`O=C(Cc1cccnc1)Nc1nnc(CCCCc2nnc(NC(=O)Cc3cccnc3)s2)s1` [Compound 28, N,N′-(5,5′-(butane-1,4-diyl)bis(1,3,4-thiadiazole-5,2-diyl))bis(2-(pyridin-3-yl)acetamide)] had a pIC50 greater than 7.00.

Compound `NCCOc1ccc(CC(=O)Nc2nnc(CCS(=O)(=O)CCc3nnc(NC(=O)Cc4ccccc4)s3)s2)cc1` [Compound 29, 2-(4-(2-aminoethoxy)phenyl)-N-(5-(2-((2-(5-(2-phenylacetamido)-1,3,4-thiadiazol-2-yl)ethyl)sulfonyl)ethyl)-1,3,4-thiadiazol-2-yl)acetamide] gave a pIC50 greater than 7.00.

As to `COc1ccc(CC(=O)Nc2nnc(CCS(=O)(=O)CCc3nnc(NC(=O)Cc4ccc(OC)c(OC)c4)s3)s2)cc1OC` [Compound 30, N,N′-(5,5′-(2,2′-sulfonylbis(ethane-2,1-diyl))bis(1,3,4-thiadiazole-5,2-diyl))bis(2-(3,4-dimethoxyphenyl)acetamide)], the pIC50 is greater than 7.00.

For `COc1ccc(CC(=O)Nc2nnc(CCS(=O)(=O)CCc3nnc(NC(=O)Cc4ccc(OC)cc4)s3)s2)cc1` [Compound 31, N,N′-(5,5′-(2,2′-sulfonylbis(ethane-2,1-diyl))bis(1,3,4-thiadiazole-5,2-diyl))bis(2-(4-methoxyphenyl)acetamide)], the pIC50 was greater than 7.00.

`O=C(Cc1ccccc1)Nc1nnc(CSCc2nnc(NC(=O)Cc3ccccc3)s2)s1` [Compound 32]: the pIC50 was 5.00 to 6.00.

`O=C(CC1CCCCO1)Nc1nnc(CCS(=O)(=O)CCc2nnc(NC(=O)CC3CCCCO3)s2)s1` (stereo not shown) [Compound 33, N,N′-(5,5′-(2,2′-sulfonylbis(ethane-2,1-diyl))bis(1,3,4-thiadiazole-5,2-diyl))bis(2-(tetrahydro-2H-pyran-2-yl)acetamide)] had a pIC50 of 6.30 to 7.00.

As to `Cc1nc2ccc(C(=O)Nc3nnc(CCSCCc4nnc(NC(=O)c5ccc6nc(C)[nH]c6c5)s4)s3)cc2[nH]1` [Compound 34, N,N′-(5,5′-(2,2′-thiobis(ethane-2,1-diyl))bis(1,3,4-thiadiazole-5,2-diyl))bis(2-methyl-1H-benzo[d]imidazole-6-carboxamide)], the pIC50 was greater than 7.00.
